≈ marks a conversion by molar mass, not a printed value. Values belong to the compound of their own block, whether it stands above or below them. Calls of active or inactive are those of the source. No cut-off for these calls is given here.
Key:
[1] = Drug exposure in mouse plasma assessed as AUC of drug at 3 mg/kg, po; type: ADME, organism-based; parameters: dose 3 mg/kg, route po
[2] = molecular target: T1, ADP-ribosyl cyclase/cyclic ADP-ribose hydrolase 1 (Homo sapiens, UniProt P28907)
T1 sequence (P28907 whole entry): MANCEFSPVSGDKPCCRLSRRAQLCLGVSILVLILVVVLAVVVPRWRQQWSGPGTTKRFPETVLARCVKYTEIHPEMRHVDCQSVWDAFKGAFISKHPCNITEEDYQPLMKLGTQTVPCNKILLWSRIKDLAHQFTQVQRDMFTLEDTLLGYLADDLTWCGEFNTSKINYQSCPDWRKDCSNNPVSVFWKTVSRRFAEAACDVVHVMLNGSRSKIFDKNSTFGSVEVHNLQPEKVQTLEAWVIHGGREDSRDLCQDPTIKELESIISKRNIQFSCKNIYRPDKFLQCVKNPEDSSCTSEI
Description: Inhibition of human his tagged CD38 using N6-etheno-NAD as substrate by fluorescence microplate reader assay

[3] = molecular target: T2, ADP-ribosyl cyclase/cyclic ADP-ribose hydrolase 1 (Mus musculus, UniProt P56528); test: Inhibition of mouse his tagged CD38 using N6-etheno-NAD as substrate by fluorescence microplate reader assay
T2 sequence (P56528 whole entry): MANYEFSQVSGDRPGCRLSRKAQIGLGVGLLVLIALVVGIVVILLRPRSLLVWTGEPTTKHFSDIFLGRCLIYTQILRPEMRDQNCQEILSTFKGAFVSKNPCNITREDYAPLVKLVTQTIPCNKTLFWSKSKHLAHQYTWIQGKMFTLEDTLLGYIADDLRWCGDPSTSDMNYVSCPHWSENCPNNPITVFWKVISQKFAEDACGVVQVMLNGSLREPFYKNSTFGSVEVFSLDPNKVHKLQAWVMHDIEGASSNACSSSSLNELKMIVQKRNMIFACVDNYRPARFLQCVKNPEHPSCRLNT

[4] = molecular target: T3, ADP-ribosyl cyclase/cyclic ADP-ribose hydrolase 1 (Rattus norvegicus, UniProt Q64244); test: Inhibition of rat CD38 using N6-etheno-NAD as substrate by fluorescence microplate reader assay
T3 sequence (Q64244 whole entry): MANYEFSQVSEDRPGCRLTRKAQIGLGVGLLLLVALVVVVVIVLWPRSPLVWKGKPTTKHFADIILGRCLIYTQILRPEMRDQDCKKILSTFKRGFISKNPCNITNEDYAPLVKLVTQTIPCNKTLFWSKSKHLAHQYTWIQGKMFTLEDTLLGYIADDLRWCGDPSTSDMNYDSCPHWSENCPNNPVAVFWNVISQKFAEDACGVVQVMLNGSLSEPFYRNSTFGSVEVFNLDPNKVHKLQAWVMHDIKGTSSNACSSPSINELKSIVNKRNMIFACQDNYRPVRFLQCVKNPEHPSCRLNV

[5] = Kinetic aqueous solubility of the compound; type: physicochemical; details: buffer; read-out: Kinetic_solubility
[6] = Thermodynamic aqueous solubility of the compound; type: physicochemical; details: buffer; read-out: Therm_solubility
[7] = Apparent permeability of compound across apical to basal membrane in human Caco-2 cells; type: ADME, cell-based
[8] = Apparent permeability of compound across basolateral to apical side in human Caco-2 cells; type: ADME, cell-based
[9] = Plasma protein binding in mouse; type: ADME, cell-free; details: read-out: PPB (converted)
[10] = Plasma protein binding in rat; type: ADME, cell-free; details: read-out: PPB (converted)
[11] = Plasma protein binding in human; type: ADME, cell-free; details: read-out: PPB (converted)
CYP1A2 = molecular target: T4, CYP1A2 (Homo sapiens, UniProt P05177); test: Inhibition of CYP1A2 (unknown origin) at 10 uM relative to control; type: ADME
T4 sequence (P05177 whole entry): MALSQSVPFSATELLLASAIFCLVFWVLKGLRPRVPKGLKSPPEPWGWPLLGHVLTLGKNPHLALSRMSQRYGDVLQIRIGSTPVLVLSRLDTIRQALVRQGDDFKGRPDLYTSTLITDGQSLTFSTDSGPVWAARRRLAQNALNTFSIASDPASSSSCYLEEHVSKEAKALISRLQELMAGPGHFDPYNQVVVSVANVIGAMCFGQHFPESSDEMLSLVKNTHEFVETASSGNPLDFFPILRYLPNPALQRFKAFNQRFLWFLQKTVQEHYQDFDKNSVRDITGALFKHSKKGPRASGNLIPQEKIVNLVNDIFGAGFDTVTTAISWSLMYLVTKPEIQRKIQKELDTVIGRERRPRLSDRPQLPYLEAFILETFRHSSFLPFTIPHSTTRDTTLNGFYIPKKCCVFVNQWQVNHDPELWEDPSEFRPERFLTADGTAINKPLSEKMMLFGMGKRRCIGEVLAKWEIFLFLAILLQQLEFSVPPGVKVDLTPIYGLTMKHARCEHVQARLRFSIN

CYP2C8 = molecular target: T5, CYP2C8 (Homo sapiens, UniProt P10632); test: Inhibition of CYP2C8 (unknown origin) at 10 uM relative to control; type: ADME
T5 sequence (P10632 whole entry): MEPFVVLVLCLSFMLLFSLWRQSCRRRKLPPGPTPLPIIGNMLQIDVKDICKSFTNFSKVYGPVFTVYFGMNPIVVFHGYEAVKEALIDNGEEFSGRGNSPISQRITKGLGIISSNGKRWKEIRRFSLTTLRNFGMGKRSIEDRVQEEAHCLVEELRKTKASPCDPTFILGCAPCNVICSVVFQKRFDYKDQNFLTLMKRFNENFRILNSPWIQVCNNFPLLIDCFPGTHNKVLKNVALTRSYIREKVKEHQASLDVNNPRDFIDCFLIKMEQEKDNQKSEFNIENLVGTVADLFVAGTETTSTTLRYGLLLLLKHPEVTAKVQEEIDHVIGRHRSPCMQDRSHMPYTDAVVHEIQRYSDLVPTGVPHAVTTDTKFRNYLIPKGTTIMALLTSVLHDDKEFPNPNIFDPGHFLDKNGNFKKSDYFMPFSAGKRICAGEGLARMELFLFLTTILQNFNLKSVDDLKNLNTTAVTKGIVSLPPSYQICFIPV

CYP2C9 = CYP2C9 (Homo sapiens, UniProt P11712); test: Inhibition of CYP2C9 (unknown origin) at 10 uM relative to control; type: ADME
CYP2C19 = CYP2C19 (Homo sapiens, UniProt P33261); test: Inhibition of CYP2C19 (unknown origin) at 10 uM relative to control; type: ADME
CYP2D6 = CYP2D6 (Homo sapiens, UniProt P10635); test: Inhibition of CYP2D6 (unknown origin) at 10 uM relative to control; type: ADME
hERG = hERG (Homo sapiens, UniProt Q12809); test: Inhibition of hERG (unknown origin) at 10 uM by patch clamp method; type: toxicity
[12] = Half life in CD-1 mouse at 1 mg/kg, iv; type: ADME, organism-based; details: in vivo
[13] = Volume of distribution at steady state in CD-1 mouse at 1 mg/kg, iv; type: ADME, organism-based; details: in vivo
[14] = AUC in CD-1 mouse at 1 mg/kg, iv; type: ADME, organism-based; parameters: dose 1 mg/kg, route iv; details: in vivo
[15] = Half life in CD-1 mouse at 3 mg/kg, po; type: ADME, organism-based; details: in vivo
[16] = Cmax in CD-1 mouse at 3 mg/kg, po; type: ADME, organism-based; parameters: dose 3 mg/kg, route po; details: in vivo
[17] = AUC in CD-1 mouse at 3 mg/kg, po; type: ADME, organism-based; parameters: dose 3 mg/kg, route po; details: in vivo
[18] = Half life in Sprague-Dawley rat at 1 mg/kg, iv; type: ADME, organism-based; details: in vivo
[19] = Volume of distribution at steady state in Sprague-Dawley rat at 1 mg/kg, iv; type: ADME, organism-based; details: in vivo
[20] = AUC in Sprague-Dawley rat at 1 mg/kg, iv; type: ADME, organism-based; parameters: dose 1 mg/kg, route iv; details: in vivo
[21] = Half life in Sprague-Dawley rat at 10 mg/kg, po; type: ADME, organism-based; details: in vivo
[22] = Cmax in Sprague-Dawley rat at 10 mg/kg, po; type: ADME, organism-based; parameters: dose 10 mg/kg, route po; details: in vivo
[23] = AUC in Sprague-Dawley rat at 10 mg/kg, po; type: ADME, organism-based; parameters: dose 10 mg/kg, route po; details: in vivo
[24] = Half life in non-human primates at 1 mg/kg, iv; type: ADME, organism-based; details: in vivo
[25] = Volume of distribution at steady state in non-human primates at 1 mg/kg, iv; type: ADME, organism-based; details: in vivo, read-out: Vdss
[26] = AUC in non-human primates at 1 mg/kg, iv; type: ADME, organism-based; parameters: dose 1 mg/kg, route iv; details: in vivo
[27] = Half life in non-human primates at 1 mg/kg, po; type: ADME, organism-based; details: in vivo
[28] = Cmax in non-human primates at 1 mg/kg, po; type: ADME, organism-based; parameters: dose 1 mg/kg, route po; details: in vivo
[29] = AUC in non-human primates at 1 mg/kg, po; type: ADME, organism-based; parameters: dose 1 mg/kg, route po; details: in vivo
[30] = Oral bioavailability in non-human primates at 1 mg/kg; type: ADME, organism-based; details: in vivo
[31] = Plasma concentration in CD1 mouse at 10 to 90 mg/kg, via oral gavage by LC-MS/MS analysis; type: ADME, organism-based; details: in vivo, DDE = dose-dependent effect, dose 10-90 mg/kg
[32] = Plasma concentration in Sprague-Dawley rat at 10 to 90 mg/kg, via oral gavage by LC-MS/MS analysis; type: ADME, organism-based; details: in vivo, DDE = dose-dependent effect, dose 10-90 mg/kg
[33] = In vivo inhibition of CD38 in po dosed mouse assessed as reduction in ADPR level in blood mg/kg measured after 6 hrs; type: functional, organism-based
[34] = In vivo inhibition of CD38 in po dosed mouse assessed as reduction in ADPR level in heart measured after 6 hrs; type: functional, organism-based
Mus musculus [35] = organism: Mus musculus; details: dose 3-30 mg/kg, route po, time 6.0 hrs
Mus musculus [36] = organism: Mus musculus; details: dose 3-30 mg/kg, route po, time 6.0 hrs; remark: listed apart in the source
Mus musculus [37] = organism: Mus musculus; details: dose 3-30 mg/kg, route po, time 6.0 hrs; remark: listed apart in the source
Mus musculus [38] = organism: Mus musculus; details: dose 3-30 mg/kg, route po, time 6.0 hrs; remark: listed apart in the source
Mus musculus [39] = organism: Mus musculus; details: C57BL/6, dose 30.0 mg/kg, route po, time 4.0 hrs
Mus musculus [40] = organism: Mus musculus; details: C57BL/6, dose 30.0 mg/kg, route po, time 4.0 hrs; remark: listed apart in the source
Mus musculus [41] = organism: Mus musculus; details: C57BL/6, dose 30.0 mg/kg, route po, time 4.0 hrs; remark: listed apart in the source
Mus musculus [42] = organism: Mus musculus; details: C57BL/6, dose 30.0 mg/kg, route po
Description: In vivo inhibition of CD38 in myocardial ischemia/reperfusion induced C57BL/6 mouse injury model assessed as change in cardiac NAD+ level at 30 mg/kg via oral gavage

Chain of CYP2C9 (P11712 whole entry): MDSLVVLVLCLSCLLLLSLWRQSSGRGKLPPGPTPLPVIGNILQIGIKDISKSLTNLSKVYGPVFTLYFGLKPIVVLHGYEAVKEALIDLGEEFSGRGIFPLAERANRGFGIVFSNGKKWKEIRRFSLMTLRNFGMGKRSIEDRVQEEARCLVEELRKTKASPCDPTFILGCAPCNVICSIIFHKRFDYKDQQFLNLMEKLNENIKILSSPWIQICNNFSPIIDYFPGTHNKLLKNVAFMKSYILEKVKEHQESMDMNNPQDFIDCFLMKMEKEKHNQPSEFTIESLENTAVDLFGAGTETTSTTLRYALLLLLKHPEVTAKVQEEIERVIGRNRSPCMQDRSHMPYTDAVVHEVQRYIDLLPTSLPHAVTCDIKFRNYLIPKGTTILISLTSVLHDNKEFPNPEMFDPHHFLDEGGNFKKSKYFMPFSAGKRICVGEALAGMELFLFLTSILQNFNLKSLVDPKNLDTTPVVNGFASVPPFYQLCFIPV
Chain of CYP2C19 (P33261 whole entry): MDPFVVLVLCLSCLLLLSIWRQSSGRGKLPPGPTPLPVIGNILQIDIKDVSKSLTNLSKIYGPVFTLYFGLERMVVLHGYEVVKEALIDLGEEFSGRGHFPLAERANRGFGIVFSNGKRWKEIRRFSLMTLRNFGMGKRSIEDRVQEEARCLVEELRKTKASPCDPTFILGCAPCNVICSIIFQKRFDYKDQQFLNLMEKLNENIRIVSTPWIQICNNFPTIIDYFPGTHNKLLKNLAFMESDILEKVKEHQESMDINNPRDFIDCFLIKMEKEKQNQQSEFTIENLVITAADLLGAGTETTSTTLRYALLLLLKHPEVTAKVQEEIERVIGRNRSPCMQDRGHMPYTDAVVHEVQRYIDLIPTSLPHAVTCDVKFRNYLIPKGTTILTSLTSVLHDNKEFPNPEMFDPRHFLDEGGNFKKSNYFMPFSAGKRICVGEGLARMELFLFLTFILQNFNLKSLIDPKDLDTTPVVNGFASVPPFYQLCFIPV
Chain of CYP2D6 (P10635 whole entry): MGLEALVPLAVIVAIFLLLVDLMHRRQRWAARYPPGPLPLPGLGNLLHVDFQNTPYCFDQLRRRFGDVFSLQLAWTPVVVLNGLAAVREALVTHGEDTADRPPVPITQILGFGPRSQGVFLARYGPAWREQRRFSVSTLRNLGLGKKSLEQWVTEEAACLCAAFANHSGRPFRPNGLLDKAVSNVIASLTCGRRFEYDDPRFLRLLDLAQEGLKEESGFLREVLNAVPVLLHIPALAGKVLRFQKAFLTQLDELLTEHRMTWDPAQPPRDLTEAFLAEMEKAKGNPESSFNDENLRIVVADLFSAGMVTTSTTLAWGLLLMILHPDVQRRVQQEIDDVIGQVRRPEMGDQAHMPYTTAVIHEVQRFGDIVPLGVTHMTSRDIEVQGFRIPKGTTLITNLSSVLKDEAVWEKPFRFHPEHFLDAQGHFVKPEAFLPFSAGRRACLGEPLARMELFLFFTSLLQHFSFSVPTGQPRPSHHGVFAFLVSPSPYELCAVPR
Chain of hERG (Q12809 whole entry): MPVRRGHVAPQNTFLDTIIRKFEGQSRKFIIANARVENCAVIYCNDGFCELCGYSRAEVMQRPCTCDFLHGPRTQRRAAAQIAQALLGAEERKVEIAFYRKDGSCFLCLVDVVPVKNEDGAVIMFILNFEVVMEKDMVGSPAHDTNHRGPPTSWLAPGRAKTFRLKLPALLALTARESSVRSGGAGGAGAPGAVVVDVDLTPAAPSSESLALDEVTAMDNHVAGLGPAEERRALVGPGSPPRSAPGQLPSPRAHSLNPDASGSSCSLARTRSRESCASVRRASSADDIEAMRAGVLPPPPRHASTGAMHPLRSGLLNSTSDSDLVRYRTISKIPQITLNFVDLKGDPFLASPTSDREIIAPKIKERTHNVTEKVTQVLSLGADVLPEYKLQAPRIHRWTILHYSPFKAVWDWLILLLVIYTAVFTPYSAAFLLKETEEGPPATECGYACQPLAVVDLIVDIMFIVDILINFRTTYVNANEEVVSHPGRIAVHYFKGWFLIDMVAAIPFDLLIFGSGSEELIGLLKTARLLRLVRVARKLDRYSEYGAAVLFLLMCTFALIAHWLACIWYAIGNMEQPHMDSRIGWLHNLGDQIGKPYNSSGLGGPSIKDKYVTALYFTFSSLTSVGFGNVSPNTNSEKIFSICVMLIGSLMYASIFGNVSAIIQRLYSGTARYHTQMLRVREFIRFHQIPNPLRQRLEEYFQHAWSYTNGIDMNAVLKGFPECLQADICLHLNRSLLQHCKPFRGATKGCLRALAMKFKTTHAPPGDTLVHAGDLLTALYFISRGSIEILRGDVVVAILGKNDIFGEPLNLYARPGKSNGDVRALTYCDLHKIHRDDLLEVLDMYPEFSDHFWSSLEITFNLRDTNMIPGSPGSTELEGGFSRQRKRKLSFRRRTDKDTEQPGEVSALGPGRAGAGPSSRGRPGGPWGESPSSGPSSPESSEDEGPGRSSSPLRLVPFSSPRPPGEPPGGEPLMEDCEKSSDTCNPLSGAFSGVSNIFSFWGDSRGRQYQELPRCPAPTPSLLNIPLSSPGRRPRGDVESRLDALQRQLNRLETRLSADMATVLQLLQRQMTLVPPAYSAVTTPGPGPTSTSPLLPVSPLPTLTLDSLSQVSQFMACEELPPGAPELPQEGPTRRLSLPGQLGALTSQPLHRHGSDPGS

SMILES: COCCO[C@H]1CC[C@H](N(C)C(=O)c2cc(-c3cncs3)cc3[nH]ccc23)CC1
IC50 [2]: > 100000 nM

SMILES: COCCO[C@H]1CC[C@H](NC(=O)c2cc(-n3ccnc3C)cc3cc[nH]c23)CC1
IC50 [2]: > 100000 nM

SMILES: COCCO[C@H]1CC[C@H](NC(=O)c2cc(-c3cncs3)nc3cc[nH]c23)CC1
AUC [1]: 6820 ng·h/mL

SMILES: COCCO[C@H]1CC[C@H](NC(=O)c2cc(-c3cncs3)nc3[nH]ccc23)CC1
AUC [1]: 10400 ng·h/mL | IC50 [3]: 3 nM | IC50 [4]: 70 nM | solubility kinetic [5]: 25 µM (≈ 10 µg/mL) | solubility thermodynamic [6]: 10 µg/mL (≈ 25 µM) | Papp A→B [7]: 17.5 ×10⁻⁶ cm/s | Papp B→A [8]: 29.6 ×10⁻⁶ cm/s | fraction unbound [9]: 0.206 | fraction unbound [10]: 0.047 | fraction unbound [11]: 0.209 | inhibition at 10 µM (CYP1A2): < 15% | inhibition at 10 µM (CYP2C8): < 15% | inhibition at 10 µM (CYP2C9): < 15% | inhibition at 10 µM (CYP2C19): < 15% | inhibition at 10 µM (CYP2D6): < 15% | inhibition at 10 µM (hERG): < 10% | t1/2 [12]: 1 h | Vdss [13]: 1.1 L/kg | AUC [14]: 1295 ng·h/mL | half-life [15]: 1.2 h | Cmax [16]: 4230 ng/mL | AUC [17]: 10400 ng·h/mL | t1/2 [18]: 3 h | Vdss [19]: 9 L/kg | AUC [20]: 4810 ng·h/mL | half-life [21]: 2.7 h | Cmax [22]: 9.91 ng/mL | AUC [23]: 60400 ng·h/mL | half-life [24]: 3.1 h | Vd [25]: 0.9 L/kg | AUC [26]: 1670 ng·h/mL | half-life [27]: 3 h | Cmax [28]: 710 ng/mL | AUC [29]: 1740 ng·h/mL | bioavailability [30]: 100% | Activity [31]: Dde | Activity [32]: Dde | EC50 [33]: 40 nM | EC50 [34]: 181 nM | inhibition (Mus musculus [35]): Active | inhibition (Mus musculus [36]): Active | inhibition (Mus musculus [37]): Active | inhibition (Mus musculus [38]): Active | inhibition (Mus musculus [39]): Active | inhibition (Mus musculus [40]): Active | inhibition (Mus musculus [41]): Active | inhibition (Mus musculus [42]): Active

SMILES: COCCO[C@H]1CC[C@H](NC(=O)c2cc(-c3cncs3)c(F)c3[nH]ccc23)CC1
AUC [1]: 5110 ng·h/mL

Second part, the compound after the results:

AUC [1]: 7380 ng·h/mL
SMILES: COCCO[C@H]1CC[C@H](NC(=O)c2cc(-c3cncs3)cc3cc[nH]c23)CC1

IC50 [2]: > 100000 nM
SMILES: COCCO[C@H]1CC[C@H](NC(=O)c2cc(-c3cnn(C)c3)cc3cc[nH]c23)CC1

IC50 [2]: > 100000 nM
SMILES: COCCO[C@H]1CC[C@H](NC(=O)c2cc(-c3cccnn3)cc3cc[nH]c23)CC1

From ChEMBL document CHEMBL5143723, “Orally Bioavailable Enzymatic Inhibitor of CD38, MK-0159, Protects against Ischemia/Reperfusion Injury in the Murine Heart” (J Med Chem, 2022)
